Measured values taken from EP0036269A1, “Substituted benzamides” (BEECHAM GROUP PLC, priority 1980, dated 1981).
Where two headings read alike, the source gives them in different places.

Assays:
Type in all cases: in vivo
[1] = test system: apomorphine induced stereotypy; assay: Inhibition of apomorphine-induced biting in the rat; settings: apomorphine 5 mg/kg sc, compounds administered subcutaneously 15 minutes after apomorphine, stereotypy scored for 90 mins
Protocol: (§1) Compounds were also tested for their ability to inhibit apomorphine induced stereotypy in rodents. Inactivity in these tests may be indicative of a low propensity to produce extra pyramidal side effects in man. The tests used were as follows.
Apomorphine 5 mg/kg sc induces a stereotypic gnawing behaviour in rats which can be measured by a subjective scoring system; score O - animal behaving normally; score 1 - increased locomotion activity with occassional sniffing and licking; score 2 - persistent licking of the bars of the cage with occassional biting; score 3 - more sustained biting; score 4 - intense biting at a particular part of the cage, animal no longer moving about.
Animals are individually placed in wire cages and after being allowed to become acclimatised are injected with apomorphine 5 mg/kg sc. Stereotypy is scored at 10 min intervals for 90 mins after apomorphine. Compounds are administered subcutaneously 15 minutes after the apomorphine.

[2] = test system: intra-gastric pressure in the rat; assay: Increase in intragastric pressure in the rat; settings: conscious restrained starved rats, 40 minute period after administration; for minimal effective dose: Rattus norvegicus, po, 40 min, read-out: minimum dose for activity
Protocol: The compounds of the Examples were tested for pharmacological activity in increasing intra-gastric pressure in the rat. Intragastric pressure changes were recorded from previously starved conscious and restrained rats using a fluid filled catheter inserted into the lumen of the stomach via a permanent gastric fistula. The catheter was connected to a physiological pressure transducer and pressure changes recorded on a hot wire pen recorder. In each animal a pre-dose period of 40 minutes was allowed to obtain a measure of spontaneous activity. An index of activity was obtained by measuring the average height of pressure waves during 10 minute periods. Values for 4 such periods were obtained during assessment of spontaneous activity and for the 40 minute period after the administration of the Compounds. Student "t" test was applied to the difference in average values obtained for spontaneous and post compound activity.

[3] = test system: apomorphine induced stereotypy; assay: Inhibition of apomorphine-induced climbing in the mouse; settings: for ED50: sc, inhibition of climbing induced by apomorphine 1 mg/kg sc
Protocol: as §1
This test is based on that described by Protain, P. et al (1976) Psychopharmacol. 50, 1-6.
Apomorphine 1 mg/kg sc induced mice to climb the wall of a wire cage (inverted food hopper - 11 x 7.5 x 18 cm high). Mice acclimatised in their home cages in groups of 5 are placed under the hoppers immediately after the injection of apomorphine 1 mg/kg SC. At 10, 20 and 30 minutes after injection climbing behaviour scored. The mice are observed for 30 seconds and scored according to the position in which they spend the majority of time; score O - four paws on floor of cage; score 1 - 2 paws only on walls; score 2 - all four paws on wall of cage.
The scores at all 3 times for each mouse are summed for apomorphine only and for apomorphine plus compound groups of mice

COc1cc(N)c(Cl)cc1C(=O)NCC1CCCN2CCCCC12 (single isomer, unassigned) [Example 4 (Isomer A), (±) 4-Amino-5-chloro-2-methoxy-N-(1'-guinolizidinyl-methyl)-benzamide]
Inhibition of apomorphine-induced biting [1]: inactive

COc1cc(N)c(Cl)cc1C(=O)NCC1CCCN2CCCCC12 (single isomer, unassigned) [4 (Isomer B), (±) 4-Amino-5-chloro-2-methoxy-N-(1'-guinolizidinyl-methyl)-benzamide]
Inhibition of apomorphine-induced biting [1]: inactive

COc1cc(N)c(Cl)cc1C(=O)NCC1CCC2CCCCN2C1 (single isomer, unassigned) [Example 2 (Isomer A), (±) 4-Amino-5-chloro-2-methoxy-N-(3'-quinolizidinyl-methyl)-benzamide]
minimal effective dose ([2]; oral): 5 mg/kg | minimum dose for activity ([2]; Subcut): 0.2 mg/kg | Inhibition of climbing ([3]; apomorphine 1 mg/kg sc, climbing scored at 10, 20 and 30 minutes): inactive | Inhibition of apomorphine-induced biting [1]: inactive

COc1cc(N)c(Cl)cc1C(=O)NCC1CCCC2CCCCN2C1 (racemic) [Example 8, (±) 4-Amino-5-chloro-2-methoxy-N-[3'-(1'-azabicyclo[5,4, O]-hendecyl-methyl)]-benzamide]
Inhibition of apomorphine-induced biting [1]: inactive

COc1cc(N)c(Cl)cc1C(=O)NCC1CCC2CCCCN2C1 (single isomer, unassigned) [2 (Isomer B), (±) 4-Amino-5-chloro-2-methoxy-N-(3'-quinolizidinyl-methyl)-benzamide]
minimum dose for activity ([2]; Subcut): 5.0 mg/kg | minimum dose for activity ([2]; oral): 5.0 mg/kg | Inhibition of apomorphine-induced biting [1]: inactive

COc1cc(N)c(Cl)cc1C(=O)NCC1CC2CCCCN2C1 (racemic) [Example 12, (±) 4-Amino-5-chloro-2-methoxy-N-(2'-indolizidinyl-methyl)-benzamide]
Inhibition of apomorphine-induced biting [1]: inactive

COc1cc(N)c(Cl)cc1C(=O)NCC1CCC2CCCCN21 (single isomer, unassigned) [14 (Isomer B), (±) 4-Amino-5-chloro-2-methoxy-N-(3'-indolizidiny-methyl)-benzamide]
minimal effective dose ([2]; Subcut): 0.2 mg/kg | ED50 [3]: 15 mg/kg | Inhibition of apomorphine-induced biting [1]: inactive

COc1cc(N)c(Cl)cc1C(=O)NCC1CCC2CCCCN21 (single isomer, unassigned) [Example 14 (Isomer A), (±) 4-Amino-5-chloro-2-methoxy-N-(3'-indolizidiny-methyl)-benzamide]
ED50 ([3]; Mus musculus, read-out: ED50): 20 mg/kg | Inhibition of apomorphine-induced biting [1]: inactive
